Experimental data from ChEMBL document CHEMBL1201862, “PubChem BioAssay data set” (2004).
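These data come from cells grown in 96-well plates and exposed to compound for 48 hours at five concentrations. At the GI50, growth is halved.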 The source made the active and inactive calls. Rule as the data show it: active = GI50 up to about 1.1 µM and inactive = higher.

How the values were obtained:
Experiment in all cases: DTP human tumour cell line panel, 48 h
ACHN = system: ACHN
HT-29 = system: HT-29
Malme-3M = system: Malme-3M
NCI-H23 = system: NCI-H23
OVCAR-8 = system: OVCAR-8
RXF 393 = system: RXF 393
SF-268 = system: SF-268
SF-295 = system: SF-295
SF-539 = system: SF-539
SNB-19 = system: SNB-19
SR = system: SR
U-251 = system: U-251
UACC-257 = system: UACC-257
UACC-62 = system: UACC-62
HOP-62 = system: HOP-62
LOX IMVI = system: LOX IMVI
HL-60 = system: HL-60

Measured: GI50

CCOC(=O)N1CCC(=O)C[C@@H]1C/C=C/P1(=O)O[C@H](c2ccccc2)C(C)N1C(C)C (stereo not given in full)
inactive: ACHN > 100 µM | HT-29 > 100 µM | Malme-3M > 100 µM | NCI-H23 > 100 µM | OVCAR-8 > 100 µM | RXF 393 > 100 µM | SF-268 > 100 µM | SF-295 > 100 µM | SF-539 > 100 µM | SNB-19 > 100 µM | SR > 100 µM | U-251 > 100 µM | UACC-257 > 100 µM | UACC-62 > 100 µM

CS/C(C)=N/OC(=O)NCCCCNc1ccc(N=[N+]=[N-])cc1
inactive: ACHN 26.2 µM | HOP-62 48.2 µM | HT-29 46.2 µM | LOX IMVI 26.7 µM | Malme-3M 32 µM | NCI-H23 34.9 µM | OVCAR-8 47.9 µM | RXF 393 46 µM | SF-268 32.7 µM | SF-295 28.5 µM | SF-539 50.5 µM | SNB-19 66.4 µM | SR 37.8 µM | U-251 30.6 µM | UACC-257 30.9 µM | UACC-62 21.8 µM

c1ccc2c(CNCCCCCCNCc3cccc4ccccc34)cccc2c1
inactive: ACHN 15.6 µM | HL-60 1.46 µM | HOP-62 16.1 µM | HT-29 2.23 µM | LOX IMVI 1.87 µM | Malme-3M 1.95 µM | NCI-H23 16.4 µM | OVCAR-8 14.5 µM | RXF 393 2.19 µM | SF-268 11.9 µM | SF-295 12.2 µM | SF-539 1.82 µM | SR 2.14 µM | U-251 10.7 µM | UACC-257 1.74 µM | UACC-62 9.73 µM

COCCNC(=O)C1C(=O)N(CCOC)C(=O)/C1=N/N (stereo not given)
inactive: ACHN > 100 µM | HL-60 > 100 µM | HT-29 > 100 µM | LOX IMVI > 100 µM | Malme-3M > 100 µM | NCI-H23 > 100 µM | SF-268 > 100 µM | SF-295 > 100 µM | SF-539 > 100 µM | SNB-19 > 100 µM | SR > 100 µM | U-251 > 100 µM | UACC-257 > 100 µM | UACC-62 > 100 µM

BrC12c3ccccc3Sc3ccccc3C1(Br)c1ccccc12 (stereo not given)
inactive: ACHN 24.2 µM | HL-60 5.21 µM | HOP-62 19.5 µM | HT-29 34.8 µM | LOX IMVI 15.8 µM | Malme-3M 30.7 µM | OVCAR-8 32.1 µM | RXF 393 34.2 µM | SF-268 32.4 µM | SF-295 23.7 µM | SF-539 18.3 µM | SNB-19 32.7 µM | SR 11.1 µM | U-251 17.7 µM | UACC-257 22.3 µM | UACC-62 16.7 µM

Cc1ccc(N2C[N+](c3ccccc3)=NC(c3ccccc3)=N2)cc1
inactive: ACHN 32.7 µM | HL-60 33.6 µM | HOP-62 > 100 µM | HT-29 39.3 µM | LOX IMVI 32.4 µM | Malme-3M 43.6 µM | NCI-H23 38.9 µM | OVCAR-8 48.1 µM | RXF 393 80.2 µM | SF-268 > 100 µM | SF-295 61.7 µM | SNB-19 39.2 µM | SR 36.4 µM | U-251 44.6 µM | UACC-257 53.2 µM

CSc1ccc(NC(=O)C2c3[nH]c4ccccc4c3C3CCC(C(C)(C)C)CC3C2C(=O)O)cc1 (stereo not given)
inactive: ACHN 15.3 µM | HL-60 9.42 µM | HOP-62 16.9 µM | HT-29 16.5 µM | Malme-3M 20.9 µM | NCI-H23 20.1 µM | OVCAR-8 14.8 µM | RXF 393 20 µM | SF-268 18.9 µM | SF-295 17.6 µM | SF-539 19.7 µM | SNB-19 30.5 µM | SR 11.5 µM | U-251 15 µM | UACC-257 34.1 µM | UACC-62 17.4 µM

N#Cc1cccc(N2C(=O)c3c(c(-c4ccccc4)c(-c4ccc(Sc5ccc(-c6c(-c7ccccc7)c7c(c(-c8ccccc8)c6-c6ccccc6)C(=O)N(c6cccc(C#N)c6)C7=O)cc5)cc4)c(-c4ccccc4)c3-c3ccccc3)C2=O)c1
inactive: ACHN > 100 µM | HL-60 > 100 µM | HOP-62 89.3 µM | HT-29 > 100 µM | LOX IMVI 78.2 µM | Malme-3M > 100 µM | NCI-H23 > 100 µM | OVCAR-8 45.9 µM | RXF 393 16.9 µM | SF-268 55.7 µM | SF-295 > 100 µM | SF-539 65.2 µM | SNB-19 29.3 µM | U-251 21.2 µM | UACC-257 > 100 µM | UACC-62 61.7 µM

COc1ccc([C@@H]2CC(=O)N2)cc1
inactive: ACHN > 100 µM | HL-60 > 100 µM | HOP-62 > 100 µM | HT-29 > 100 µM | Malme-3M > 100 µM | NCI-H23 > 100 µM | OVCAR-8 > 100 µM | RXF 393 > 100 µM | SF-268 > 100 µM | SF-295 > 100 µM | SF-539 > 100 µM | SNB-19 > 100 µM | SR > 100 µM | U-251 > 100 µM | UACC-257 > 100 µM | UACC-62 > 100 µM

CN1CCC(CN2c3ccccc3Sc3ccccc32)CC1
inactive: ACHN 16 µM | HL-60 13 µM | HOP-62 18 µM | HT-29 12.7 µM | LOX IMVI 13.5 µM | NCI-H23 16.4 µM | OVCAR-8 17.5 µM | RXF 393 3.07 µM | SF-268 15.4 µM | SF-295 15.8 µM | SF-539 14.9 µM | SNB-19 15.7 µM | SR 14.1 µM | U-251 15.7 µM | UACC-257 14.6 µM | UACC-62 14.8 µM

NC1=NC(Cn2nc(-c3ccccc3)c3ccccc3c2=O)=NNC(=O)N1
inactive: ACHN > 100 µM | HOP-62 > 100 µM | HT-29 > 100 µM | Malme-3M > 100 µM | NCI-H23 > 100 µM | OVCAR-8 > 100 µM | SF-268 > 100 µM | SF-295 > 100 µM | SF-539 > 100 µM | SNB-19 > 100 µM | SR > 100 µM | U-251 > 100 µM | UACC-257 > 100 µM | UACC-62 > 100 µM

O=C1C[C@@H]2CCCC[C@@H]2C12SCCS2
inactive: ACHN > 100 µM | HL-60 80 µM | HOP-62 > 100 µM | LOX IMVI > 100 µM | Malme-3M > 100 µM | NCI-H23 95.1 µM | OVCAR-8 > 100 µM | RXF 393 54.2 µM | SF-268 > 100 µM | SF-295 > 100 µM | SF-539 > 100 µM | SNB-19 > 100 µM | U-251 > 100 µM | UACC-257 > 100 µM | UACC-62 77.3 µM

COCC12CC(CC1=O)C1C2ON2c3ccccc3C(=O)C12c1ccccc1 (stereo not given)
inactive: ACHN > 100 µM | HL-60 76.4 µM | HOP-62 > 100 µM | HT-29 > 100 µM | Malme-3M > 100 µM | NCI-H23 > 100 µM | OVCAR-8 > 100 µM | RXF 393 33.3 µM | SF-268 > 100 µM | SF-295 > 100 µM | SF-539 > 100 µM | SNB-19 > 100 µM | SR 88.1 µM | U-251 > 100 µM | UACC-257 52 µM | UACC-62 77.4 µM
